Measured values: patent publication US20170188607A1, “SOLUBILIZATION OF A SWEET MODULATOR AND FLAVOR” (Firmenich SA, priority 2014, published 2017)

Assay: Supersaturation relative to the intrinsic solubility of the compound
Assay type: physicochemical
Procedure: A concentrated solution 1 of (S)-1-(3-(((4-amino-2,2-dioxido-1H-benzo[c][1,2,6]thiadiazin-5-yl)oxy)methyl)piperidin-1-yl)-3-methylbutan-1-one at 0.3% (w/w) (3000 ppm) was prepared in water. pH was adjusted to 11 using NaOH to form (S)-1-(3-(((4-amino-2,2-dioxido-1H-benzo[c][1,2,6]thiadiazin-5-yl)oxy)methyl)piperidin-1-yl)-3-methylbutan-1-one sodium salt and obtain an homogeneous solution. Next, a syrup was prepared by mixing an aqueous solution of High Fructose Corn Syrup (HFCS), citric acid and deionized water. The final syrup contained 34% fructose, 0.68% citric acid, 0.1% sodium citrate and 65.22% water, with a pH of 2. An aliquot of solution 1 was diluted 100 times with the syrup to yield a final concentration of 30 ppm of (S)-1-(3-(((4-amino-2,2-dioxido-1H-benzo[c][1,2,6]thiadiazin-5-yl)oxy)methyl)piperidin-1-yl)-3-methylbutan-1-one, i.e. about 18 times above the intrinsic solubility of the compound at 3° C. The sample was kept at 3° C. and the amount of (S)-1-(3-(((4-amino-2,2-dioxido-1H-benzo[c][1,2,6]thiadiazin-5-yl)oxy)methyl)piperidin-1-yl)-3-methylbutan-1-one was measured by UV spectroscopy as a function of time. The amount of (S)-1-(3-(((4-amino-2,2-dioxido-1H-benzo[c][1,2,6]thiadiazin-5-yl)oxy)methyl)piperidin-1-yl)-3-methylbutan-1-one was reduced to 28 ppm after 1 week and first crystals were visually observed. […]
A concentrated solution 1 of (S)-1-(3-(((4-amino-2,2-dioxido-1H-benzo[c][1,2,6]thiadiazin-5-yl)oxy)methyl)piperidin-1-yl)-3-methylbutan-1-one at […] was prepared in water. pH was adjusted to 11 using NaOH to form (S)-1-(3-(((4-amino-2,2-dioxido-1H-benzo[c][1,2,6]thiadiazin-5-yl)oxy)methyl)piperidin-1-yl)-3-methylbutan-1-one sodium salt and obtain an homogeneous solution. […] The sample was kept at 3° C. and the amount of (S)-1-(3-(((4-amino-2,2-dioxido-1H-benzo[c][1,2,6]thiadiazin-5-yl)oxy)methyl)piperidin-1-yl)-3-methylbutan-1-one was measured by UV spectroscopy as a function of time. […]

Compound: CC(C)CC(=O)N1CCC[C@H](COc2cccc3c2C(N)=NS(=O)(=O)N3)C1 [(S)-1-(3-(((4-amino-2,2-dioxido-1H-benzo[c][1,2,6]thiadiazin-5-yl)oxy)methyl)piperidin-1-yl)-3-methylbutan-1-one]
- times above the intrinsic solubility of the compound (final concentration of 18 ppm, at 3° C.): about 11 times
- times above the intrinsic solubility of the compound (final concentration of 30 ppm, at 3° C.): about 18 times
- times above the intrinsic solubility of the compound (final concentration of 100 ppm, at 20° C.): about 15 times
